The values below come from PubChem BioAssay (NCI).

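Test compounds were applied to cells in 96-well plates for 48 hours at 5 doses. Definition used: TGI = concentration required for complete inhibition of growth.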 A value given as a limit tells only on which side of the number the result lay.

Some test systems named below: SNB-19 CNS; M14 melanoma; HL-60(TB) leukemia; OVCAR-8 ovarian; SK-MEL-28 melanoma; ACHN renal; IGROV1 ovarian; HOP-92 NSCLC; HT29 colon; EKVX NSCLC; TK-10 renal; UO-31 renal; SN12C renal; NCI-H226 lung; COLO 205 colon; SK-MEL-5 melanoma; HCT-15 colon; RXF 393 renal; MOLT-4 leukemia; HOP-62 NSCLC.
What all share (assay): inhibition of tumour cell growth, NCI panel, 48 h

For `Nc1c2c(=O)[nH]c(=O)c2c(N)c2c(=O)c3ccccc3c(=O)c12`, the TGI is more than 57.4 µM in the assay on SNB-19 CNS; 0.88 µM in the assay on M14 melanoma; more than 100 µM in the assay on HL-60(TB) leukemia; 5.82 µM in the assay with OVCAR-8 ovarian; 3.98 µM in the assay on SK-MEL-28 melanoma; 9.79 µM in the assay on ACHN renal. In addition, the TGI in the assay on IGROV1 ovarian was 10.8 µM; in the assay with HOP-92 NSCLC it was 51.9 µM; with HT29 colon, 2.83 µM; with EKVX NSCLC it was 9.55 µM; in the assay with TK-10 renal, 40.7 µM; with UO-31 renal it was 31.1 µM. In addition, the TGI came to 3.17 µM with SN12C renal; 4.96 µM in the assay on NCI-H226 lung; 1.85 µM in the assay on COLO 205 colon; 0.394 µM in the assay with SK-MEL-5 melanoma; 3.19 µM in the assay on HCT-15 colon; 35.6 µM with RXF 393 renal. Moreover, the TGI with MOLT-4 leukemia is more than 26.4 µM; in the assay on HOP-62 NSCLC it was 6.85 µM.
Turning to `O=C(CNc1cccc([N+](=O)[O-])c1)Nn1c(-c2ccccc2)nc2ccccc2c1=O`, the TGI was 4.99 µM in the assay with SNB-19 CNS; 1.81 µM in the assay on HL-60(TB) leukemia; 5.31 µM in the assay on OVCAR-8 ovarian; 3.04 µM with SK-MEL-28 melanoma; 3.34 µM in the assay with ACHN renal; 0.482 µM in the assay on IGROV1 ovarian. The TGI in the assay on HT29 colon is 1.08 µM; with EKVX NSCLC it was 6.86 µM; with TK-10 renal, 3.95 µM; with UO-31 renal, 4.12 µM; in the assay with SN12C renal, 2.73 µM; in the assay on NCI-H226 lung, 0.512 µM. Besides, the TGI with COLO 205 colon is 3.17 µM; in the assay on SK-MEL-5 melanoma it was 2.31 µM; in the assay on HCT-15 colon it was 2.23 µM; with RXF 393 renal, 1.08 µM; in the assay with MOLT-4 leukemia it was 0.818 µM; in the assay with HOP-62 NSCLC, 4.25 µM.
Regarding `C=CC[N+]12CN3CN(CN(C3)C1)C2`, the TGI is more than 100 µM in the assay with SNB-19 CNS; 82.3 µM in the assay on M14 melanoma; more than 100 µM in the assay with HL-60(TB) leukemia; 57.6 µM in the assay on OVCAR-8 ovarian; 55.5 µM with SK-MEL-28 melanoma; 46 µM in the assay on ACHN renal. In addition, the TGI with IGROV1 ovarian is 66.4 µM; in the assay on HOP-92 NSCLC it was 46.9 µM; in the assay with HT29 colon, 42.8 µM; in the assay with EKVX NSCLC, 46.4 µM; with TK-10 renal it was 45.4 µM; with UO-31 renal, 43.7 µM. Moreover, the TGI with SN12C renal was 60.2 µM; in the assay on COLO 205 colon, 65.9 µM; with SK-MEL-5 melanoma, more than 100 µM; in the assay with HCT-15 colon, 50.9 µM; with RXF 393 renal it was 38 µM; in the assay on MOLT-4 leukemia, 57.5 µM. Further, the TGI in the assay on HOP-62 NSCLC is more than 100 µM.
Regarding `CC(C)=CCNc1ncnc2nc[nH]c12`, the TGI in the assay on SNB-19 CNS, in the assay with M14 melanoma, with HL-60(TB) leukemia, with OVCAR-8 ovarian, with SK-MEL-28 melanoma and in the assay on ACHN renal was more than 100 µM throughout. In addition, the TGI with IGROV1 ovarian, in the assay with HOP-92 NSCLC, in the assay with HT29 colon, in the assay on EKVX NSCLC, in the assay on TK-10 renal and in the assay with UO-31 renal was more than 100 µM in each case. In addition, the TGI in the assay on SN12C renal, with NCI-H226 lung, with COLO 205 colon, in the assay with SK-MEL-5 melanoma, with HCT-15 colon and with RXF 393 renal was more than 100 µM in each case. In addition, the TGI in the assay on MOLT-4 leukemia and in the assay on HOP-62 NSCLC was more than 100 µM each time.
`N#CN=C(N)NC(=O)/C=C/C=C/c1ccc(Cl)cc1`: the TGI in the assay with M14 melanoma, with HL-60(TB) leukemia, with OVCAR-8 ovarian, in the assay on SK-MEL-28 melanoma, in the assay on ACHN renal and in the assay with IGROV1 ovarian was more than 100 µM in each case. Also, the TGI with HOP-92 NSCLC, in the assay on HT29 colon, in the assay on TK-10 renal, in the assay on UO-31 renal, in the assay with SN12C renal and in the assay with NCI-H226 lung was more than 100 µM in each case. Also, the TGI with COLO 205 colon, with SK-MEL-5 melanoma, in the assay with HCT-15 colon, in the assay on RXF 393 renal, in the assay with MOLT-4 leukemia and with HOP-62 NSCLC was more than 100 µM throughout.
With `COC(=O)Nc1nc2cc(OC)c(OC)cc2c(=O)[nH]1`, the TGI in the assay with SNB-19 CNS, with M14 melanoma, with HL-60(TB) leukemia, in the assay with OVCAR-8 ovarian, in the assay on SK-MEL-28 melanoma and in the assay with ACHN renal was more than 100 µM in each case. Further, the TGI in the assay with IGROV1 ovarian, in the assay with HT29 colon, in the assay with EKVX NSCLC, in the assay with TK-10 renal, in the assay with UO-31 renal and in the assay with SN12C renal was more than 100 µM throughout. For the same compound, the TGI in the assay with NCI-H226 lung, in the assay on COLO 205 colon, in the assay on SK-MEL-5 melanoma, in the assay on HCT-15 colon, with MOLT-4 leukemia and with HOP-62 NSCLC was more than 100 µM in each case.
For the compound `O=C1c2ccccc2C(=O)c2c(Nc3ccc4c5c(cccc35)C(=O)c3ccccc3-4)cccc21`, the TGI in the assay with SNB-19 CNS, with M14 melanoma, with ACHN renal, in the assay on IGROV1 ovarian, in the assay with HOP-92 NSCLC and with HT29 colon was more than 100 µM in each case. Also, the TGI in the assay on EKVX NSCLC, in the assay on TK-10 renal, in the assay with UO-31 renal, in the assay on SN12C renal, with NCI-H226 lung and in the assay with SK-MEL-5 melanoma was more than 100 µM throughout. For the same compound, the TGI in the assay with HCT-15 colon, in the assay on RXF 393 renal, in the assay on MOLT-4 leukemia and in the assay on HOP-62 NSCLC was more than 100 µM throughout.
